Experimental data as given in PMC7228089, “Odiparcil, a potential glycosaminoglycans clearance therapy in mucopolysaccharidosis VI—Evidence from in vitro and in vivo models” (PLoS ONE, 2020).

Experiments:
[1] = more than 30 clinical trials, total of 1900 subjects; earlier development as antithrombotic agent; cited from earlier work
Arsb^- mice [2] = assay: Cartilage thickness in trachea and distal femoral growth plate (histology); type: in vivo
Procedure: (§1) MPS VI model nonsense mutation Arsb^m1J homozygous mice (referred to as Arsb^- throughout the manuscript) and WT littermates were obtained from internal breeding of stock mice derived from The Jackson Laboratory strain No: 005598 (C57BL/6J-Arsb^m1J/GrsrJ). Genotyping and Arsb^m1J mutation identification were performed according to the protocol provided by The Jackson Laboratory. Each study group contained mix of male and female: 6 animals in disease progression studies and between 8 and 12 animals in odiparcil treatment studies.
Housing conditions. The animals were housed in groups of 3–10 (for mice) or 2 (for rats) in polypropylene cages (floor area = 1032 cm^2) under standard conditions: room temperature (22 ± 2°C), hygrometry (55 ± 10%), light/dark cycle (12h/12h), air replacement (15–20 volumes/hour), water and food ad libitum. Mice were allowed to habituate for at least 5 days prior to experimentation. Mice were numbered by marking their tail using indelible markers. For the early disease model (treatment starting in juvenile, 4 weeks old mice), odiparcil administration in the weeks 1 to 6 was done per gavage with odiparcil in Methylcellulose 400 cps 1% / Poloxamer 188 0.1% / Water, freshly prepared every week. Later on, administration was per chow diet with odiparcil mixed before diet granulation. […]

Arsb^- mice [3] = assay: Sulphated GAG accumulation in liver and kidney (Alcian Blue staining, Blyscan); type: in vivo; details: for Liver sulphated GAG accumulation / Kidney sulphated GAG accumulation: Arsb^- mice; for Liver sulphated GAG accumulation: 6 months of treatment; for Kidney sulphated GAG accumulation: Alcian Blue
Procedure: as §1
Housing conditions. The animals were housed in groups of 3–10 (for mice) or 2 (for rats) in polypropylene cages (floor area = 1032 cm^2) under standard conditions: room temperature (22 ± 2°C), hygrometry (55 ± 10%), light/dark cycle (12h/12h), air replacement (15–20 volumes/hour), water and food ad libitum. Mice were allowed to habituate for at least 5 days prior to experimentation. Mice were numbered by marking their tail using indelible markers. For the early disease model (treatment starting in juvenile, 4 weeks old mice), odiparcil administration in the weeks 1 to 6 was done per gavage with odiparcil in Methylcellulose 400 cps 1% / Poloxamer 188 0.1% / Water, freshly prepared every week. Later on, administration was per chow diet with odiparcil mixed before diet granulation. For advanced disease treatment (treatment starting in adult, 3 months old mice), administration was per diet from the beginning of the study. WT and Arsb^- animals were randomized into groups: control and two doses of odiparcil: 1.5 g odiparcil per kg of diet and 4.5 g odiparcil per kg of diet. For urine collection, animals were placed for 24 hours in standard metabolism cages (2 or 3 animals per cage). At the end of the studies, animals were anesthetized (O2 / isoflurane), blood for smears was collected from ocular sinus and after euthanasia samples from liver and kidney (snap frozen for total GAG analysis by Blyscan method or fixed for histology, see below) and from trachea and knee from the left hind leg were collected.
Total sulphated GAG in cell culture media were determined colorimetrically by DMMB method (described in [31] adapted for cell culture media). Total sulphated GAG in snap frozen liver and kidney samples and urine were measured using Blyscan assay from Biocolor Company (UK) following manufacturer’s instructions. Urine samples were processed directly according to the kit manual. For GAG in tissues quantification, individual pieces (approximately 50 mg) were removed from the frozen samples (liver and kidney), weighed and digested in 1 mL papain solution prepared according to the Blyscan kit protocol. After the extraction, 20 μL from each reaction were used for sulphated GAG determination following the Blyscan kit protocol. The obtained values for sulphated GAG were adjusted to the volume of papain reaction and were normalized to the weight of the tissue used or, in the case of urine samples, to creatinine levels.
GAG tissue accumulation in liver and kidney sections was estimated based on Alcian Blue staining performed at low pH (pH 1), at which the dye stained predominantly sulphated GAG. Two slides at different levels per tissue block were used. Staining with 1% Alcian Blue in hydrochloric acid was performed on automated Leica Autostainer. […] Then for each proof image, an RGB index was calculated that was the mean of Red + Green + Blue intensities of all non-black pixels. […]

SMILES: Cc1cc(=O)oc2cc(O[C@@H]3SC[C@@H](O)[C@H](O)[C@H]3O)ccc12 [Odiparcil, 4-methyl-7-(5-thio-β-D-xylopyranosyloxy)-2 H-chromen-2-one]
- Safety and tolerability in clinical trials [1]: good safety and tolerability
- Cartilage thickening in trachea and distal femoral growth plate (Arsb^- mice [2]; Arsb^- mice, early and established disease models, 6 months of treatment): dose-dependent reduction of cartilage thickening
- Cartilage thickness in wild type animals (Arsb^- mice [2]; wild type mice, early disease treatment model, only distal femoral growth plate, significant only for the high dose): Some decrease in the thickness of cartilage
- Liver sulphated GAG accumulation (Arsb^- mice [3]; early disease model, 1.5 and 4.5 g/kg diet): significantly reduced liver GAG at both doses
- Kidney sulphated GAG accumulation (Arsb^- mice [3]; early disease model, 6 months, effect not significant): reduced kidney GAG
- Liver sulphated GAG accumulation (Arsb^- mice [3]; established disease model, highest dose (4.5 g/kg diet)): significantly reduced liver GAG
- Kidney sulphated GAG accumulation (Arsb^- mice [3]; established disease model, 6 months): significant only in the latter model
- Liver and kidney GAG levels in wild type animals (Arsb^- mice [3]; wild type mice, two doses of odiparcil, 6 months): no significant effects on GAG levels
